According to US10070889B2, “Inorganic pyrophosphate and uses thereof” (The Curators of the University of Missouri, priority 2011, dated 2018):
Like-named read-outs stand apart in the source and are kept apart here. Where a SMILES comes first, the peptide text is derived from it. The star is where a group is joined. Cbz = O=C(OCc1ccccc1)*

Legend:
[1] = tested on: 20S chymotrypsin-like activity sensitive to proteasomal inhibitor MG132; experiment: Proteasomal activity of stored spermatozoa, fluorometric substrate Z-LLL-AMC; format: cell-based, boar
Experimental: Spermatozoa preserved in BTS with and without 10 μM PPi were loaded into a 96-well black plate (final sperm conc. 1×10^6 spermatozoa/ml), and incubated at 37.5° C. with Z-LLE-AMC (a specific substrate for 20S chymotrypsin-like peptidyl-glutamylpeptide hydrolyzing [PGPH] activity not sensitive to MG132; final conc. 100 μM; Enzo Life Sciences, Plymouth, Pa.), Z-LLVY-AMC (a specific substrate for 20S proteasome and other chymotrypsin-like proteases, as well as calpains; final conc. 100 μM; Enzo), Z-LLL-AMC (a specific substrate for 20S chymotrypsin-like activity sensitive to proteasomal inhibitor MG132; final conc. 100 μM; BostonBiochem, Cambridge, Mass.) or ubiquitin-AMC (specific substrate for ubiquitin-C-terminal hydrolase activity; final conc. 1 μM; Enzo) for 1 h. […] In the presence of appropriate 20S core activity, the AMC molecule is cleaved off and becomes fluorescent. This emitted fluorescence was measured every 10 min for a period of 1 h, yielding a curve of relative fluorescence (no units). Fluorescence intensity was measured by Thermo Fluoroskan Ascent (Thermo Scientific), using a 380 nm excitation and 460 nm emission.

[2] = tested on: ubiquitin-C-terminal hydrolase activity; settings: PPi+BTS (stored with 10 μM PPi), day 10; other treatments 98.4-122.7
Experimental: (§1) The proteasomal-proteolytic and deubiquitinating activities, which are essential for fertilization, were assayed using specific fluorometric substrates Z-LLL-AMC, Z-LLVY-AMC, Z-LLE-AMC and ubiquitin-AMCs in spermatozoa stored for 3 and 10 days, with or without PPi. Alternatively, 10 μM PPi+BTS was added to semen preserved without PPi at the time of assay (“Add PPi” treatment). As a negative control, 10 μM MG132 (a proteasomal inhibitor) was added to sperm samples before assay.
(§2) Spermatozoa preserved in BTS with and without 10 μM PPi were loaded into a 96-well black plate (final sperm conc. 1×10^6 spermatozoa/ml), and incubated at 37.5° C. with Z-LLE-AMC (a specific substrate for 20S chymotrypsin-like peptidyl-glutamylpeptide hydrolyzing [PGPH] activity not sensitive to MG132; final conc. 100 μM; Enzo Life Sciences, Plymouth, Pa.), Z-LLVY-AMC (a specific substrate for 20S proteasome and other chymotrypsin-like proteases, as well as calpains; final conc. 100 μM; Enzo), Z-LLL-AMC (a specific substrate for 20S chymotrypsin-like activity sensitive to proteasomal inhibitor MG132; final conc. 100 μM; BostonBiochem, Cambridge, Mass.) or ubiquitin-AMC (specific substrate for ubiquitin-C-terminal hydrolase activity; final conc. 1 μM; Enzo) for 1 h. Fluorogenic proteasomal core substrates are composed of a small peptide (LLL/LLE/LLVY) coupled to a fluorescent probe, aminomethylcoumarin (AMC). […] In the presence of appropriate 20S core activity, the AMC molecule is cleaved off and becomes fluorescent. This emitted fluorescence was measured every 10 min for a period of 1 h, yielding a curve of relative fluorescence (no units). Fluorescence intensity was measured by Thermo Fluoroskan Ascent (Thermo Scientific), using a 380 nm excitation and 460 nm emission.

[3] = tested on: 20S proteasome and other chymotrypsin-like proteases, as well as calpains; settings: PPi+BTS and Add PPi treatments, 10 μM PPi; controls 85.7
Experimental: as §1, §2

[4] = tested on: 20S chymotrypsin-like peptidyl-glutamylpeptide hydrolyzing [PGPH] activity; settings: other treatments 363.1-386.1
Experimental: as §1, §2

[5] = tested on: porcine oocytes inseminated with boar spermatozoa; experiment: Porcine in vitro fertilization (IVF), total and polyspermic fertilization rates; format: cell-based
Experimental: Thereafter, 25-30 oocytes were placed into each of four 50 μl drops of the mTBM medium, which had been covered with mineral oil in a 35 mm polystyrene culture dish. The dishes were allowed to equilibrate in the incubator for 30 min until spermatozoa were added for fertilization. […] At the end of the washing procedure, the spermatozoa were resuspended in mTBM medium. After appropriate dilution, 50 μl of this sperm suspension was added to 50 μl of the medium that contained oocytes to give a final sperm concentrations of 1-10×10^5 spermatozoa/ml. Different concentrations of inorganic pyrophosphate (PPi; […], Sigma) were added to fertilization drops (final concentrations; 0-20 μM) at the time of sperm addition. Oocytes were co-incubated with spermatozoa for 6 h at 38.5° C., 5% CO2. At 6 h after IVF, oocytes were transferred into 100 μl NCSU23 containing 0.4% BSA ([…], Sigma) for further culture during 16-20 h.

boar spermatozoa [6] = settings: BTS-IMV+10 μM PPi, day 6, vs all other groups
Experimental: Values are expressed as the mean±SEM. […] Values are expressed as the mean percentages ±SEM. […] (C) Effect of PPi supplementation on the viability of spermatozoa stored in commercial and custom made BTS extenders. Boar spermatozoa were preserved in BTS-IMV (IMV technologies, France) or BTS-HM (homemade) with and without 10 μM PPi for 7 days at room temperature. Sperm motilities were evaluated by observation under light microscopy at 37.5° C. […] Experiments were repeated twice.
Semen was collected from proven fertile adult Duroc boars 15-22 months of age under the guidance of approved Animal Care and Use Committee (ACUC) protocols of the University of Missouri-Columbia (UM-C). The boars were placed on a routine collection schedule of one collection per week. The sperm-rich fraction of ejaculate was collected into an insulated vacuum bottle. Sperm-rich fractions of ejaculates with greater than 85% motile spermatozoa were used. Semen volumes were determined with a graduated cylinder. Sperm concentrations were estimated by a hemocytometer (Fisher Scientific, Houston, Tex.). The percentage of motile spermatozoa was estimated at 38.5° C. by light microscopy at 250× magnification. […]

[7] = tested on: boar spermatozoa bound to porcine oocyte zona pellucida
Experimental: Spermatozoa/oocytes were fixed in 2% formaldehyde for 40 min at room temperature, washed, permeabilized in PBS with 0.1% Triton-X-100 (PBS-TX), and blocked for 25 min in PBS-TX containing 5% normal goat serum. […] In order to count the number of spermatozoa bound to zona pellucida or acrosome reacted spermatozoa, oocyte were fixed and stained with DAPI and acrosome-binding lectin PNA-FITC (Molecular Probes) after IVF 30 min (5×10^5 spermatozoa/ml). Image acquisition was performed on a Nikon Eclipse 800 microscope (Nikon Instruments Inc., Melville, N.Y.) with Cool Snap camera (Roper Scientific, Tucson, Ariz.) and MetaMorph software (Universal Imaging Corp., Downington, Pa.).

boar spermatozoa [8] = settings: stored in BTS with 10 μM PPi
Experimental: Boar spermatozoa were washed twice with PBS-PVA, and sperm concentration was adjusted to 1×10^6 spermatozoa/ml in PBS-PVA. The sperm viability was assessed by LIVE/DEAD® Sperm Viability Kit (L-7011, Molecular Probes) which contains DNA dyes SYBR14 and propidium iodide (PI), following a manufacturer's protocol. Sperm samples (198 μl) were loaded onto a 96-well plate. SYBR14 (1 μl; final conc. 100 nM) and PI (1 μl; final conc. 12 μM) were added to sperm samples and incubated for 10 min at 37.5° C. in darkness. Flow cytometric analysis was performed using a Guava EasyCyte™ Plus flow cytometer (Guava Technologies, IMV Technologies, L'Aigle, France). For each sample, 5,000 events were analyzed by the Guava ExpressPro Assay program, using standard manufacturer settings. For assessment of sperm mitopotential, boar spermatozoa were stained with JC-1 (Cat. No. 4500-0250, MitoPotential Kit, IMV), and measured using manufacturer settings. For negative controls, DMSO or no staining solution was added to sperm samples.
Following an industry practice for boar semen storage, fresh boar semen was diluted in BTS extender and stored at room temperature (15-17° C.) for 10 days. […] As described above, sperm viability was assessed by flow cytometry using a SYBR14/PI viability kit and mitopotential was measured with JC-1 dye.

sperm diluted in BTS = settings: added to sperm diluted in BTS, after 6 days of cooling; cited from earlier work

With `CC(C)C[C@@H](C=O)NC(=O)[C@H](CC(C)C)NC(=O)[C@H](CC(C)C)NC(=O)OCc1ccccc1` [MG132, reference compound] (Cbz-Leu-Leu-Leu-aldehyde) the “chymotrypsin-like activity in spermatozoa” value ([1]; 10 μM MG132 added before assay, day 3) was “low”.

For `O=P(O)(O)OP(=O)(O)O` [PPi, inorganic pyrophosphate], the “chymotrypsin-like activity (Z-LLL-AMC)” value ([1]; 10 μM PPi treatments vs no PPi, 1 h measurement) was “no differences between treatments”, the “deubiquitinating activity (ubiquitin-AMC), relative fluorescence” value [2] was 138.9 and the “chymotrypsin-like proteasomal core activity (Z-LLVY-AMC), fluorescence intensity” value [3] was 110.8-121.5. The “chymotrypsin-like PGPH activity (Z-LLE-AMC), relative fluorescence” value ([4]; Add PPi treatment (10 μM PPi added at time of assay), day 3) was 392.1, the “chymotrypsin-like PGPH activity (Z-LLE-AMC), relative fluorescence” value ([4]; PPi+BTS (stored with 10 μM PPi), day 10) was 388 and the polyspermy ([5]; 10 μM PPi in IVF medium, 1×10^6 spermatozoa/ml) was 84.9%. For the same molecule, the “percentage of total and polyspermic fertilization at reduced sperm concentrations” value ([5]; 10 μM PPi, 1, 2 and 5×10^5 spermatozoa/ml, significant at 5×10^5) was “augmented”, the “fertilization rates with excess PPi” value ([5]; 100-500 μM PPi added into IVF medium) was “decreased fertilization rates in a dose-dependent manner” and the “rates of total and polyspermic fertilization” value ([5]; increasing concentrations of PPi (up to 10 μM) in IVF medium, 1×10^6 spermatozoa/ml) was “increased significantly and progressively”. For the same molecule, the “combined (mono+polyspermic) fertilization rate, spermatozoa preserved with PPi” value ([5]; preserved with 10 μM PPi in BTS 3-4 days, IVF with or without PPi (FIG. 7D third, fourth column)) was “highest”, the fertilization ([5]; spermatozoa stored in BTS-IMV with 10 μM PPi for 3 days, below 70% without PPi) was roughly 100% and the “fertilization rates, spermatozoa stored without PPi, PPi added during IVF” value ([5]; stored 3-4 days in BTS without PPi, IVF with 10 μM PPi (FIG. 7D second column)) was “higher”. The sperm motility (boar spermatozoa [6]) was “Higher”, the “percentage of acrosome-reacted spermatozoa” value ([7]; 20 μM PPi vs 0-15 μM PPi) was “significantly higher” and the “mean number of spermatozoa bound to ZP” value ([7]; increasing concentrations of PPi, 30 min, 5×10^5 spermatozoa/ml) was “decreased slightly, but not significantly”. For the same molecule, the “content of metabolically active spermatozoa with polarized mitochondrial membranes” value (boar spermatozoa [8]; day 3, JC-1) was “augmented” and the “percentage of live spermatozoa vs control spermatozoa” value (boar spermatozoa [8]; storage days 3 and 10, SYBR14/PI) was “no significant difference”.

In the case of prostaglandin F2α [PGF2α], the “sperm viability and motility” value (sperm diluted in BTS) is given as “maintained better sperm viability and motility”.
